Results: patent publication US20130023494A1, “MODULATORS OF THE GPR119 RECEPTOR AND THE TREATMENT OF DISORDERS RELATED THERETO” (ARENA PHARMACEUTICALS, INC., priority 2010, published 2013)

What was measured:
hGPR119 = target: T1, hGPR119 (Homo sapiens, UniProt Q8TDV5); test: HTRF cAMP assay in CHO-K1 cells stably expressing the GPR119 receptor; format: cell-based; details: 1 h room temperature
T1 construct: expressed in transfected cells
T1 sequence (Q8TDV5 2-335 limits assumed): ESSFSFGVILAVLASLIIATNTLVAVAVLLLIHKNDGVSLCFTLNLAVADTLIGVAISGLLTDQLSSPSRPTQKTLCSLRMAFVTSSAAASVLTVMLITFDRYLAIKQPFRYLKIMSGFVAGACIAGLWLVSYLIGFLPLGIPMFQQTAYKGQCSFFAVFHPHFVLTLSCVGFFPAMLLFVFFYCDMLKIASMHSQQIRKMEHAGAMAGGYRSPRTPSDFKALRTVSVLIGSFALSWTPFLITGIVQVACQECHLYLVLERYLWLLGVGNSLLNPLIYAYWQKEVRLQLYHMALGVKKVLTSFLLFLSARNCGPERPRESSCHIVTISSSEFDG
Description: GPR119 agonists were evaluated in an HTRF® cAMP detection assay according to the manufacturer's instructions (Cisbio, cAMP Dynamic 2 Assay Kit; #62AM4PEJ) using CHO-K1 cells stably expressing the GPR119 receptor. Briefly, CHO-K1 cells were transduced with a lentiviral vector encoding the nucleotide sequence of GPR119 (NCBI mRNA and protein reference sequences: NM_178471.2 & NP_848566, (GPR119 has also been referred to as Glucose-Dependent Insulinotropic Receptor (GDIR)). The N-terminus of the GPR119 nucleotide sequence was modified to replace the first, methionine-coding codon with a nucleotide sequence coding for a standard, nine amino acid, hemagglutinin tag. Following transduction, cells expressing the GPR119 receptor were isolated and a single clone was isolated following standard dilution-cloning procedures. On the day of the assay, cultured CHO-GPR119 cells were harvested, suspended in assay buffer and plated into 384-well assay plates (PerkinElmer Proxiplate #6008280) at a density of 2,000 cells per well. A cAMP standard curve was added to each plate. Test compounds were solubilized in DMSO, serially diluted in DMSO and then diluted in assay buffer before adding to the cells. Test compounds were evaluated in triplicate, using 10-point, 5-fold serial dilutions starting at 10 μM. The final DMSO concentration in the assay was 0.5%. Compounds and cells were incubated for 1 h at room temperature and then detection reagents were added to each well (cAMP-D2 in cell lysis buffer, followed by europium cryptate-labeled anti-cAMP antibody). Plates were then incubated at room temperature for 1 h prior to reading. Time-resolved fluorescence measurements were collected on PerkinElmer Envision™ or BMG Pherastar™ microplate readers. The compound N-(2-fluoro-4-(methylsulfonyl)phenyl)-6-(4-(3-isopropyl-1,2,4-oxadiazol-5-yl)piperidin-1-yl)-5-nitropyrimidin-4-amine was used as a positive control in each runset while assay buffer containing 0.5% DMSO was used as the negative control. The HTRF® assay was used to determine EC50 values for GPR119 agonists.

male diabetic ZDF rats = test: Oral glucose tolerance test (oGTT) in male diabetic ZDF rats; format: in vivo, rat; details: for % Inhibition of Glucose Excursion (dose: mg/kg): ZDF rats, glucose excursion AUC reduction relative to vehicle; for blood glucose after challenge with glucose: diabetic ZDF rats
Description: FIGS. 1 to 4, 16 and 17 show results of three independent experiments with three representative GPR119 agonists of the present invention, namely, Compound 28, Compound 62, and Compound 83. In each experiment, male ZDF rats (approximately 10-week old) were fasted for 18 hours and randomly grouped (n=6) to receive a GPR119 agonist (Compound 28, Compound 62, or Compound 83) at indicated doses (mg/kg body weight). Compounds were delivered orally via a gavage needle (p.o., volume 4 mL/kg) 1 h prior to glucose bolus (3 g/kg) (time=−60 min in FIGS. 1, 3, and 16), with a separate group receiving vehicle (20% hydroxypropyl-beta-cyclodextrin) as control in each experiment. At time 0 min the glucose bolus was administered. Levels of blood glucose were assessed using a glucometer (One-Touch Ultra™, LifeScan) at time −60 min (prior to compound administration), at 0 min (time when glucose bolus was given), and at 30, 60, 90, 120 min post glucose bolus. The plasma glucose excursion curves are given in FIGS. 1, 3, and 16, and glucose excursion AUC (area under the curve) reductions in compound treated animals relative to vehicle control are given in FIGS. 2, 4, and 17, and in Table 1.

male 129SVE mice = test: Oral glucose tolerance test (oGTT) in male 129SVE mice; format: in vivo, mouse; details: for % Inhibition of Glucose Excursion: AUC reduction relative to vehicle
Description: Male 129SVE mice (approximately 8-week old) were fasted for 18 h and randomly grouped (n=6) to receive a GPR119 agonist (Compound 28) at 1, 3, or 10 mg/kg (mg/kg body weight). The compound was delivered orally via a gavage needle (p.o., volume 4 mL/kg) 30 minutes prior to glucose bolus (3 g/kg) (time=−30 min in FIG. 5), with a separate group receiving vehicle (20% hydroxypropyl-beta-cyclodextrin) as control. At time 0 min the glucose bolus was administered. Levels of blood glucose were assessed using a glucometer (One-Touch Ultra™, LifeScan) at time −30 minute (prior to compound administration), at 0 min (at time when glucose bolus was given), and at 20, 40, 60, 120 minutes post glucose bolus. The plasma glucose excursion curve is given in FIG. 5, and glucose excursion AUC (area under the curve) reduction in compound treated animals relative to vehicle control is given in FIG. 6, and in Table 2.

incretin hormone GIP = test: Incretin hormone GIP release in male 129SVE mice (Total GIP ELISA); format: in vivo, mouse; details: 10 mpk p.o., plasma sample after 45 min, PET vehicle 72.5
Description: Male 129SVE mice (approximately 8-week old) were fasted for 18 h and randomly grouped (n=6) to receive a GPR119 agonist (Compound 28, Compound 73, Compound 71, Compound 62, and Compound 30) at 10 mpk dose (mg/kg body weight). Compounds were delivered orally via a gavage needle (p.o., volume 4 mL/kg), and after 45 min a blood sample was collected to determine plasma total GIP levels. A separate group received vehicle (PET: 80% PEG:10% Ethanol:10% Tween80™) as control. Plasma GIP levels were determined using a Total GIP ELISA kit from Millipore.

[1] = 10 mg/kg p.o. 1 h prior to glucose bolus (3 g/kg)
[2] = 30 mg/kg p.o. 1 h prior to glucose bolus (3 g/kg)

SMILES | EC50 (hGPR119) | Total GIP, pg/mL (dose, mg/kg) (incretin hormone GIP) | further results
CC(C)(C)OC(=O)N1CCC(O[C@H]2CC[C@@H](Oc3ccc(S(C)(=O)=O)cc3)CC2)CC1 [Compound 1, tert-butyl 4-((1s,4s)-4-(4-(methylsulfonyl)phenoxy)cyclohexyloxy)piperidine-1-carboxylate] | 266 nM | – | –
CC(C)(C)OC(=O)N1CCC(O[C@H]2CC[C@H](Oc3ccc(S(C)(=O)=O)cc3F)CC2)CC1 [Compound 5, tert-butyl 4-((1r,4r)-4-(2-fluoro-4-(methylsulfonyl)phenoxy)cyclohexyloxy)piperidine-1-carboxylate] | 8 nM | – | –
CC(C)OC(=O)N1CCC(O[C@H]2CC[C@H](Oc3ccc(S(C)(=O)=O)cc3F)CC2)CC1 [Compound 13, isopropyl 4-((1r,4r)-4-(2-fluoro-4-(methylsulfonyl)phenoxy)cyclohexyloxy)piperidine-1-carboxylate] | 19 nM | – | –
CC(C)OC(=O)N1CCC(O[C@H]2CC[C@H](Oc3cnc(S(C)(=O)=O)cn3)CC2)CC1 [Compound 28, isopropyl 4-((1r,4r)-4-(5-(methylsulfonyl)pyrazin-2-yloxy)cyclohexyloxy)piperidine-1-carboxylate] | – | 468.1 pg/mL | % Inhibition of Glucose Excursion (dose: mg/kg) (male diabetic ZDF rats; [1]): 54.7% (10); % Inhibition of Glucose Excursion (dose: mg/kg) (male diabetic ZDF rats; [2]): 76.5% (30); blood glucose after challenge with glucose (male diabetic ZDF rats): lowered blood glucose; blood glucose after challenge with glucose (male 129SVE mice): lowered blood glucose; % Inhibition of Glucose Excursion (male 129SVE mice; 1 mg/kg p.o. 30 minutes prior to glucose bolus (3 g/kg)): 24.9%; % Inhibition of Glucose Excursion (male 129SVE mice; 3 mg/kg p.o. 30 minutes prior to glucose bolus (3 g/kg)): 26.4%; % Inhibition of Glucose Excursion (male 129SVE mice; 10 mg/kg p.o. 30 minutes prior to glucose bolus (3 g/kg)): 35.7%
CC(C)(F)c1noc(N2CCC(O[C@H]3CC[C@H](Oc4cnc(S(C)(=O)=O)cn4)CC3)CC2)n1 [Compound 30, 3-(2-fluoropropan-2-yl)-5-(4-((1r,4r)-4-(5-(methylsulfonyl)pyrazin-2-yloxy)cyclohexyloxy)piperidin-1-yl)-1,2,4-oxadiazole] | – | 375.7 pg/mL | –
CC(C)(C)OC(=O)CN1CCC(O[C@H]2CC[C@H](Oc3ccc(S(C)(=O)=O)cc3)CC2)CC1 [Compound 35, tert-butyl 2-(4-((1r,4r)-4-(4-(methylsulfonyl)phenoxy)cyclohexyloxy)piperidin-1-yl)acetate] | 426 nM | – | –
CCC(F)(F)C(=O)N1CCC(O[C@H]2CC[C@H](Oc3ccc(S(C)(=O)=O)cc3)CC2)CC1 [Compound 48, 2,2-difluoro-1-(4-((1r,4r)-4-(4-(methylsulfonyl)phenoxy)cyclohexyloxy)piperidin-1-yl)butan-1-one] | 11 nM | – | –
CC(C)(F)c1nc(N2CCC(O[C@H]3CC[C@H](Oc4cnc(S(C)(=O)=O)cn4)CC3)CC2)no1 [Compound 62, 5-(2-fluoropropan-2-yl)-3-(4-((1r,4r)-4-(5-(methylsulfonyl)pyrazin-2-yloxy)cyclohexyloxy)piperidin-1-yl)-1,2,4-oxadiazole] | – | 368.5 pg/mL | % Inhibition of Glucose Excursion (dose: mg/kg) (male diabetic ZDF rats; 3.3 mg/kg p.o. 1 h prior to glucose bolus (3 g/kg)): 25.7% (3.3); % Inhibition of Glucose Excursion (dose: mg/kg) (male diabetic ZDF rats; [1]): 32.7% (10); % Inhibition of Glucose Excursion (dose: mg/kg) (male diabetic ZDF rats; [2]): 48.0% (30); blood glucose after challenge with glucose (male diabetic ZDF rats): lowered blood glucose
C=C(C)c1noc(N2CCC(O[C@H]3CC[C@H](Oc4cnc(S(C)(=O)=O)cn4)CC3)CC2)n1 [Compound 69, 5-(4-((1r,4r)-4-(5-(methylsulfonyl)pyrazin-2-yloxy)cyclohexyloxy)piperidin-1-yl)-3-(prop-1-en-2-yl)-1,2,4-oxadiazole] | 31 nM | – | –
CS(=O)(=O)c1cnc(O[C@H]2CC[C@H](OC3CCN(C(=O)OC(CF)CF)CC3)CC2)cn1 [Compound 71, 1,3-difluoropropan-2-yl 4-((1r,4r)-4-(5-(methylsulfonyl)pyrazin-2-yloxy)cyclohexyloxy)piperidine-1-carboxylate] | – | 379.8 pg/mL | –
CCC(F)(F)C(=O)N1CCC(O[C@H]2CC[C@H](Oc3cnc(S(C)(=O)=O)cn3)CC2)CC1 [Compound 73, 2,2-difluoro-1-(4-((1r,4r)-4-(5-(methylsulfonyl)pyrazin-2-yloxy)cyclohexyloxy)piperidin-1-yl)butan-1-one] | – | 195.2 pg/mL | –
CC(C)OC(=O)N1CCC(O[C@H]2CC[C@H](Oc3cnc(-c4ccnnc4)cn3)CC2)CC1 [Compound 77, isopropyl 4-((1r,4r)-4-(5-(pyridazin-4-yl)pyrazin-2-yloxy)cyclohexyloxy)-piperidine-1-carboxylate] | 281 nM | – | –
C[C@@H](OC(=O)N1CCC(O[C@H]2CC[C@H](Oc3cnc(S(C)(=O)=O)cn3)CC2)CC1)C(F)(F)F [Compound 83, (R)-1,1,1-trifluoropropan-2-yl 4-((1r,4r)-4-(5-(methylsulfonyl)pyrazin-2-yloxy)cyclohexyloxy)piperidine-1-carboxylate] | 3 nM | – | % Inhibition of Glucose Excursion (dose: mg/kg) (male diabetic ZDF rats; 1.0 mg/kg p.o. 1 h prior to glucose bolus (3 g/kg)): 14.4% (1.0); % Inhibition of Glucose Excursion (dose: mg/kg) (male diabetic ZDF rats; 3.0 mg/kg p.o. 1 h prior to glucose bolus (3 g/kg)): 44.3% (3.0); % Inhibition of Glucose Excursion (dose: mg/kg) (male diabetic ZDF rats; [1]): 57.9% (10); blood glucose after challenge with glucose (male diabetic ZDF rats): lowered blood glucose
CC(C)c1noc(N2CCC(O[C@H]3CC[C@H](Oc4cnc(C(=O)N(C)C)cn4)CC3)CC2)n1 [Compound 98, 5-((1r,4r)-4-(1-(3-isopropyl-1,2,4-oxadiazol-5-yl)piperidin-4-yloxy)cyclohexyloxy)-N,N-dimethylpyrazine-2-carboxamide] | 152 nM | – | –
Cc1nc(S(C)(=O)=O)ccc1O[C@H]1CC[C@H](OC2CCN(C(=O)SC(C)C)CC2)CC1 [Compound 116, S-isopropyl 4-((1r,4r)-4-(2-methyl-6-(methylsulfonyl)pyridin-3-yloxy)cyclohexyloxy)piperidine-1-carbothioate] | 5 nM | – | –
